Test results from publication PMC12713470, “Design and Synthesis of Novel Chalcone Derivatives Targeting Bladder and Liver Cancer: Cytotoxicity Evaluation and Preliminary Mechanistic Studies” (ACS Omega, 2025).
Like-named read-outs stand apart in the source and are kept apart here.

Key:
[1] = test system: MRC-5: human lung fibroblast cells; test: MTT cytotoxicity assay on MRC-5 cells; format: cell-based; settings: MRC5, 24 h incubation, n = 3, ± standard deviation
Procedure: (§1) Cytotoxicity was determined using the MTT colorimetric assay, and half-maximal inhibitory concentrations (IC50, μM) were obtained for all cell lines (Table ). The selectivity index (SI) was calculated as the ratio of IC50 MRC-5/IC50 cancer cell line. Doxorubicin was employed as a positive control due to its broad-spectrum clinical use, either alone or in combination, against hepatocellular, ovarian, cervical, and bladder cancers. −
(§2) In vitro biological assays were performed by using five human cell lines for cytotoxicity evaluation. HepG2 cells (ATCC HB-8065), derived from a human hepatocellular carcinoma of the liver (person), were cultured in Dulbecco’s modified Eagle medium (DMEM) supplemented with 5% fetal bovine serum (FBS), penicillin/streptomycin (100 IU/mL), and amphotericin B (5 μg/mL), in a humidified incubator with 5% CO2 at 37 °C. These cells were plated at a concentration of 2.0 × 10^4 cells/well in 96-well microplates. MRC-5 cells (ATCC CCL-171), derived from human lung fibroblasts of a […] fetus, were cultured under the same conditions and plated at 1.0 × 10^4 cells/well. T24 cells (ATCC HTB-4), established from a transitional cell carcinoma of the bladder (person), were also cultured under identical conditions and plated at a density of 1.0 × 10^4 cells/well. TOV-21G cells (ATCC CRL-11730), derived from a primary malignant ovarian adenocarcinoma (person), were maintained in DMEM with the same supplementation and environmental conditions and plated at 5.0 × 10^4 cells/well. […]
(§3) HeLa, HepG2, MRC-5, T24, and TOV-21G cells were suspended in a culture medium supplemented with 5% fetal bovine serum (FBS) and seeded into 96-well microplates. The plates were incubated under a humidified atmosphere containing 5% CO2 at 37 °C for 24 h, allowing for adherence and monolayer formation. , Eight serial dilutions of the test samples, previously solubilized in dimethyl sulfoxide (DMSO), were prepared in DMEM supplemented with 1% FBS, covering a concentration range from […], and the results were converted to […]. The volume of DMSO in each well was limited to a final concentration not exceeding 2%. Following monolayer formation, the culture medium was aspirated and replaced with 100 μL of the diluted test samples and 100 μL of DMEM containing 1% FBS. The plates were then incubated under the same atmospheric and temperature conditions.
(§4) Two hours prior to end point reading, 20 μL of MTT [3-(4,5-dimethylthiazol-2-yl)-2,5-diphenyltetrazolium bromide] solution (1.0 mg/mL in sterile phosphate-buffered saline, Sigma-Aldrich) was added to each well. The incubation period following sample addition varied according to the cell line: 24 h for MRC-5, 48 h for T24, and 72 h for HeLa, HepG2, and TOV-21G. After the appropriate incubation, absorbance was measured by using a VICTOR X3 microplate reader (PerkinElmer), and data were processed with WorkOut 2.5 software at a wavelength of 490 nm. Formazan formation, resulting from the MTT reduction by metabolically active cells, was used as an indirect measure of cell viability. The percentage of cytotoxicity was calculated using the equation % cytotoxicity = [(A – B)/A] × 100, where A is the optical density (OD4 9 0) of untreated control cells and B is the OD4 9 0 of treated cells.
(§5) Cytotoxicity was expressed as the 50% cytotoxic concentration (CC5 0), representing the concentration of sample required to reduce cell viability by 50% relative to that of the untreated control.

[2] = test system: HeLa: human cervical adenocarcinoma cells; test: MTT cytotoxicity assay on HeLa cells; format: cell-based; settings: for IC50: Homo sapiens, HeLa, MTT, 72 h incubation, n = 3, NA: noncytotoxic at the concentrations tested; for SI (HeLa): IC50 MRC-5/IC50 HeLa
Procedure: as §1, §2, §3, §4, §5

[3] = test system: HepG2: human liver hepatocellular carcinoma cells; test: MTT cytotoxicity assay on HepG2 cells; format: cell-based; settings: for IC50: Homo sapiens, HepG2, MTT, 72 h incubation, n = 3, NA: noncytotoxic at the concentrations tested; for SI (HepG2): IC50 MRC-5/IC50 HepG2
Procedure: as §1, §2, §3, §4, §5

[4] = test system: T24: human urinary bladder carcinoma cells; test: MTT cytotoxicity assay on T24 cells; format: cell-based; settings: for IC50: Homo sapiens, T-24, MTT, 48 h incubation, n = 3, NA: noncytotoxic at the concentrations tested; for SI (T24): IC50 MRC-5/IC50 T24
Procedure: as §1, §2, §3, §4, §5

[5] = test system: TOV-21G: human ovarian adenocarcinoma cells; test: MTT cytotoxicity assay on TOV-21G cells; format: cell-based; settings: for IC50: Homo sapiens, TOV21G, MTT, 72 h incubation, n = 3, NA: noncytotoxic at the concentrations tested; for SI (TOV-21G): IC50 MRC-5/IC50 TOV-21G
Procedure: as §1, §2, §3, §4, §5

[6] = test system: human hepatocellular carcinoma (HCC) cells; design: method as in Tsai and colleagues; settings: subtoxic concentrations (5–20 μM); ref Tsai and colleagues; cited from earlier work
[7] = test system: HepG2: human liver hepatocellular carcinoma cells; design: method as in PMID 37944413; settings: hit compound, earlier study of the group; read-out: IC50 HepG2 (earlier work); cited from earlier work
HepG2 cells = test system: HepG2 cells; design: method as in PMID 37944413; settings: hit compound, earlier study of the group; cited from earlier work

Compound	IC50 [1]	IC50 [2]	SI (HeLa) [2]	IC50 [3]	SI (HepG2) [3]	IC50 [4]	SI (T24) [4]	IC50 [5]	SI (TOV-21G) [5]	migration and invasion of human hepatocellular carcinoma (HCC) cells [6]	IC50 [7]	HepG2 cell migration (earlier work) (HepG2 cells)	activity against TOV-21G relative to hit 1 ([5]; ratio of IC50 values, 1 vs 2)
COc1cc([N+](=O)[O-])cc(/C=C/C(=O)c2ccc(C)cc2)c1O [compound 7, (E)-3-(2-Hydroxy-3-methoxy-5-nitrophenyl)-1-(p-tolyl)-prop-2-en-1-one]	28.1 ± 1.3 µM	26.6 ± 1.8 µM	1.0	16.6 ± 1.5 µM	1.6	104 ± 1.9 µM	0.2	23.8 ± 2.8 µM	1.1	–	–	–	–
CCCc1cc(OC)c(O)c(C(=O)/C=C/c2ccc(F)cc2)c1 [compound 18, (E)-3-(4-Fluorophenyl)-1-(2-hydroxy-3-methoxy-5-propylphenyl)-prop-2-en-1-one]	11.5 ± 1.2 µM	4.1 ± 1.3 µM	2.8	8.3 ± 1.2 µM	1.3	15.4 ± 1.5 µM	0.7	4.8 ± 1.4 µM	2.3	–	–	–	–
CCCc1cc(/C=C/C(=O)c2ccccc2)c(O)c(OC)c1 [compound 11, (E)-3-(2-Hydroxy-3-methoxy-5-propylphenyl)-1-phenylprop-2-en-1-one]	11 ± 1.2 µM	2.1 ± 1.1 µM	5.2	4.6 ± 1.2 µM	2.3	9.2 ± 1.2 µM	1.2	11.9 ± 1.5 µM	0.9	–	–	–	–
CCCc1cc(OC)c(O)c(C(=O)/C=C/c2ccc(C)cc2)c1 [compound 16, (E)-1-(2-Hydroxy-3-methoxy-5-propylphenyl)-3-(p-tolyl)-prop-2-en-1-one]	7.7 ± 1.5 µM	12.8 ± 1.3 µM	0.6	6.6 ± 1.4 µM	1.1	17.1 ± 2.1 µM	0.4	10.9 ± 1.5 µM	0.7	–	–	–	–
COc1cc(N)cc(/C=C/C(=O)c2ccc(C)cc2)c1O [compound 8, (E)-3-(5-Amino-2-hydroxy-3-methoxyphenyl)-1-(p-tolyl)-prop-2-en-1-one]	40.9 ± 2 µM	11.5 ± 1.8 µM	3.5	–	–	158.6 ± 1.4 µM	0.2	53.1 ± 2.6 µM	0.7	–	–	–	–
C=CC(C)(C)c1cc(/C=C/C(=O)c2ccc(O)cc2)c(OC)cc1O [licochalcone A]	–	–	–	–	–	–	–	–	–	effectively inhibited migration and invasion	–	–	–
CCCc1cc(/C=C/C(=O)c2ccc(C)cc2)c(O)c(OC)c1 [compound 1]	47.2 ± 1.3 µM	–	–	4.2 ± 1.3 µM	11.1	> 161 µM	<0.2	7.2 ± 1.3 µM	6.5	–	4.25 µM	inhibiting HepG2 cell migration	–
CCCc1cc(OC)c(O)c(C(=O)/C=C/c2ccc(O)cc2)c1 [compound 17, (E)-1-(2-Hydroxy-3-methoxy-5-propylphenyl)-3-(4-hydroxyphenyl)-prop-2-en-1-one]	12.7 ± 1.4 µM	114 ± 2.1 µM	0.1	19.4 ± 1.4 µM	0.6	36.4 ± 1.5 µM	0.3	39 ± 1.5 µM	0.3	–	–	–	–
CCCc1cc(OC)c(O)c(C(=O)/C=C/c2ccccc2)c1 [compound 15, (E)-1-(2-Hydroxy-3-methoxy-5-propylphenyl)-3-phenylprop-2-en-1-one]	18.4 ± 1.9 µM	13.7 ± 1.5 µM	1.3	16.1 ± 1.2 µM	1.1	18.4 ± 1.9 µM	1	5.4 ± 1.2 µM	3.3	–	–	–	–
CCCc1cc(/C=C/C(=O)c2ccc(O)cc2)c(O)c(OC)c1 [compound 10, (E)-3-(2-Hydroxy-3-methoxy-5-propylphenyl)-1-(4-hydroxyphenyl)-prop-2-en-1-one]	5 ± 1.3 µM	17.9 ± 2 µM	0.2	18.9 ± 1.6 µM	0.2	34.9 ± 1.4 µM	0.1	7.2 ± 1.2 µM	0.7	–	–	–	–
CCCc1cc(/C=C/C(=O)c2ccc(C)cc2)c(OC(C)=O)c(OC)c1 [compound 2, (E)-2-Methoxy-6-(3-oxo-3-(p-toluyl)-prop-1-en-1-yl)-4-propylphenyl Acetate]	16.1 ± 1.5 µM	3.6 ± 1.3 µM	4.7	4.2 ± 1.2 µM	3.8	59.5 ± 1.5 µM	0.2	1.2 ± 1.1 µM	13.3	–	–	–	over six times more active
CCCc1cc(/C=C/C(=O)c2ccc(C(=O)/C=C/c3cc(CCC)cc(OC)c3O)cc2)c(O)c(OC)c1 [compound 12, (2E,2′E)-1,1′-(1,4-Phenylene)-bis(3-(2-hydroxy-3-methoxy-5-propylphenyl)-prop-2-en-1-one)]	35 ± 1.5 µM	20.4 ± 1.5 µM	1.7	–	–	10.4 ± 1.7 µM	3.3	33.7 ± 2.4 µM	1.0	–	–	–	–
CCCc1cc(/C=C/C(=O)c2ccc(C)cc2)c(OCc2ccccc2)c(OC)c1 [compound 4, (E)-3-(2-(Benzyloxy)-3-methoxy-5-propylphenyl)-1-(p-toluyl)-prop-2-en-1-one]	242.4 ± 2.4 µM	–	–	16.9 ± 1.3 µM	14.3	–	–	–	–	–	–	–	–
COc1cccc2c1C(=O)c1c(O)c3c(c(O)c1C2=O)C[C@@](O)(C(=O)CO)C[C@@H]3O[C@H]1C[C@H](N)[C@H](O)[C@H](C)O1 [doxorubicin, reference compound]	0.6 ± 1.2 µM	2.9 ± 1.1 µM	0.2	0.06 µM	–	4.4 ± 1.3 µM	0.1	0.5 µM	1.3	–	–	–	–
